Assay results from ChEMBL document CHEMBL1201862, “PubChem BioAssay data set” (2004).
Where “and” joins values, the source holds several entries; their conditions need not be identical. Identical values can stand only once. Calls of active or inactive are those of the source.

Key:
[1] = HEK293 cell cytotoxicity, dose response, cytotoxicity control, cherry-picks, set 5 (AID 1053117); type: functional, cell-based
[2] = HepG2 cell cytotoxicity, dose response, cytotoxicity control, cherry-picks, set 5 (AID 1053118); type: functional, cell-based
[3] = A549 cell cytotoxicity, dose response, cytotoxicity control, cherry-picks, 26 µM top dose (AID 1053119); type: functional, cell-based
[4] = molecular target: T1, Beta-2 adrenergic receptor (Homo sapiens, UniProt P07550); experiment: beta2AR agonists driving receptor internalization, dose response, cell-based, FAP fluorogen, flow cytometry, cherry pick 1 (AID 588763); type: functional
[5] = molecular target: T1, Beta-2 adrenergic receptor; experiment: Dose response for HTS for Beta-2AR agonists via FAP method from Powderset1.; type: functional
cells = conditions: HEK293
[6] = molecular target: Endoplasmic reticulum aminopeptidase 1 (Homo sapiens, UniProt Q9NZ08); experiment: ERAP1 aminopeptidase inhibitors, dose response, biochemical, cherry-pick, set 2, plate reader (AID 743314)
[7] = Late stage assay provider results from the probe development effort to identify inhibitors of Protein Arginine Deaminase 4 (PAD4): cell-based absorbance-based assay to assess cytotoxicity of test compounds.; type: functional
[8] = IOSE-T80 ovarian epithelial cell cytotoxicity, dose response, cytotoxicity control for PAX8 inhibitor project, plate reader, dry powder samples (AID 743045); type: functional, cell-based
[9] = LGR2 antagonists, dose response, cell-based, HEK293, CRE-luciferase reporter, cherry pick, set 2 (AID 743343); type: functional;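 note: transfected cells were stimulated with diluted bursicon conditioned medium after compound addition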
[10] = cytotoxicity in COV362 ovarian cancer cells, dose response, cytotoxicity control for PAX8 inhibitor project, cell-based, plate reader, dry powder, SA12 (AID 743144); type: functional
[11] = control 3'UTR Renilla luciferase suppression, dose response, counter-screen for Shn3 inhibitor project, cell-based, Clone20-Shn3RL, cherry-picked (AID 624133); type: functional
[12] = cytotoxicity dependent on PAX8, dose response, cell-based, plate reader, dry powder (AID 743049); type: functional
HEK293 = experiment: inhibitors of LMP1-driven NF-kB reporter, dose response, cell-based, HEK293, luciferase, cherry-pick (AID 588343); type: functional; conditions: Homo sapiens
[13] = reduction of Shn3 3'UTR firefly luciferase signal, dose response, Schnurri-3 inhibitor project, cell-based, Clone20 osteoblasts, cherry-pick, set 2 (AID 720490); type: functional;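 note: actives lower the luminescence signal as inhibitors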
[14] = cytotoxicity in COV434 cells, dose response, cytotoxicity control for PAX8 inhibitor project, cell-based, plate reader, dry powder, SA7 (AID 743145); type: functional
[15] = PAX2 cell-based inhibition, dose response, selectivity assay for PAX8 inhibitor project, plate reader, dry powder samples (AID 743048); type: functional;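 note: HEK293 cells carrying a WT1 promoter luciferase reporter driven by expressed Pax2; potency is for inhibition of Pax2 driven reporter signal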
[16] = A549 cell cytotoxicity, dose response, cytotoxicity control, plate reader, cherry-pick, antagonist series (AID 743412); type: functional, cell-based
[17] = Shn3 3'UTR reporter inhibitors, dose response, cell-based, Clone20 osteoblasts, firefly luciferase, cherry-picked (AID 624132); type: functional;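 note: firefly luciferase luminescence from reporter carrying the Shn3 3'UTR in osteoblasts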
[18] = PAX5 activity inhibitors, dose response, selectivity assay for PAX8 inhibitor project, cell-based, plate reader, dry powder samples (AID 743047); type: functional;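 note: HEK293 cells carrying a Pax5 driven CD19 promoter luciferase reporter; potency of inhibitors that lower reporter luminescence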
[19] = cytotoxicity in OV-90 ovarian cancer cells, dose response, PAX8 inhibitor project, cell-based, plate reader, dry powder, SA8 (AID 743149); type: functional
Paired box protein Pax-8 = Paired box protein Pax-8 (Homo sapiens, UniProt Q06710); experiment: inhibitors of PAX8-driven TPO luciferase reporter, dose response, RMG-I cells, cherry-pick (AID 687027); type: functional, cell-based;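 note: luciferase reporter driven by Pax8 target thyroperoxidase promoter measured by SteadyGlo luminescence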
[20] = MC4R antagonists, dose response, counter-screen for LGR2 antagonist project, cell-based, plate reader, cherry pick (AID 743444); type: functional;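 note: transfected HEK 293 cells stimulated with alpha-MSH peptide; potency of inhibitors of the alpha-MSH evoked signal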
Caspase-7 = Caspase-7 (Homo sapiens, UniProt P55210); experiment: human caspase-7 inhibitors, dose response, selectivity assay for caspase-6 inhibitor project, biochemical, DEVD-R110 fluorescence, cherry-pick (AID 743295)
Genome polyprotein = Genome polyprotein (dengue virus type 2, UniProt P29990); experiment: Dengue-2 NS5 methyltransferase inhibitors, primary screen, biochemical, confirmation dose response (AID 588689); type: functional
Caspase-3 = molecular target: T2, Caspase-3 (Homo sapiens, UniProt P42574); experiment: caspase-3 enzyme inhibitors, selectivity check, dose response, selectivity assay for caspase-6 allosteric inhibitor project, biochemical, fluorescence, cherry-picked samples (AID 743291)
T2 sequence (P42574 whole entry): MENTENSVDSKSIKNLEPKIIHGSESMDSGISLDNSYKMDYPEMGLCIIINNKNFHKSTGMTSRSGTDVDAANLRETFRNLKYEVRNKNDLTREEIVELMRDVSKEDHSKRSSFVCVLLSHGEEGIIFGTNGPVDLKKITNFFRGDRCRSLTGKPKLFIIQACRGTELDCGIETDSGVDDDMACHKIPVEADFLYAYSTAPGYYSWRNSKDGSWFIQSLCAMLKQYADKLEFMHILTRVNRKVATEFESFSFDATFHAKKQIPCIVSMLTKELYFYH

Caspase-6 = molecular target: T3, Caspase-6 (Homo sapiens, UniProt P55212); experiment: human caspase-6 inhibitors, dose response, biochemical, VEID-R110 fluorescence, cherry-pick (AID 720632)
T3 sequence (P55212 whole entry): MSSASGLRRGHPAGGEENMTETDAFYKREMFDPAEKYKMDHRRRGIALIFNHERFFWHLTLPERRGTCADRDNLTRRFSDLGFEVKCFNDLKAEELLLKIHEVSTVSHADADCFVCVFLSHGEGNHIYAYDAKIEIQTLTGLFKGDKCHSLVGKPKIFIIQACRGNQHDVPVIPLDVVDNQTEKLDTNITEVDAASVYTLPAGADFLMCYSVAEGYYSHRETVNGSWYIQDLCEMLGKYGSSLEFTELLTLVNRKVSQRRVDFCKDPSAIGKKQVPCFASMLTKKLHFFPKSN

[21] = lymphoblastoid cell cytotoxicity, dose response, cytotoxicity control, plate reader, dry powder, set 2 (AID 624367); type: functional
[22] = cytotoxicity in OVCAR8 ovarian cancer cells, dose response, PAX8 project, cell-based, plate reader, dry powder samples (AID 743197); type: functional; conditions: OVCAR-8
[23] = A2780 ovarian cancer cell cytotoxicity, dose response, cytotoxicity control, plate reader, dry powder samples (AID 743046); type: functional, cell-based
[24] = HEK293 cell viability, dose response, counter-screen for EBV LMP1 inhibitor project, dry powder, set 2 (AID 624374); type: functional
Streptococcus = experiment: Group A Streptococcus viability loss, dose response, counter-screen for streptokinase expression inhibitor project, luminescence, BacTiterGlo (AID 1915); type: functional, organism-based;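 note: potency for reduction of bacterial viability or growth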
[25] = tested on: Streptococcus sp. 'group A'; experiment: growth inhibition of control SK(-) GAS strain, dose response, counter-screen for streptokinase expression inhibitor project, luminescence, kanamycin, BacTiterGlo, confirmation (AID 1900); type: functional, organism-based
[26] = human group III sPLA2 inhibitors, dose response, biochemical, QFRET, IC50 (AID 743457);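 note: green fluorescence rise as the enzyme cleaves BODIPY PC-A2 in liposomes; potency for inhibition of the enzyme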
[27] = molecular target: 1-phosphatidylinositol 4,5-bisphosphate phosphodiesterase gamma-1 (Homo sapiens, UniProt P19174); experiment: Counterscreen for inhibitors of phospholipase C isozymes (PLC-B3): Fluorescence-based biochemical high throughput dose response assay to identify inhibitors of phospholipase C isozymes (PLC-gamma1).
[28] = molecular target: 1-phosphatidylinositol 4,5-bisphosphate phosphodiesterase beta-3 (Homo sapiens, UniProt Q01970); experiment: Fluorescence-based biochemical high throughput dose response assay to identify inhibitors of phospholipase C isozymes (PLC-B3).
[29] = Late stage assay provider results from the probe development effort to identify selective inhibitors of heat shock protein 90 (HSP90): Absorbance-based cell proliferation assay in MCF7 cells.; type: functional
[30] = Late stage assay provider results from the probe development effort to identify selective inhibitors of heat shock protein 90 (HSP90): Absorbance-based cell proliferation assay in SKBR3 cells.; type: functional; conditions: SK-BR-3
[31] = HepG2 cell cytotoxicity, dose response, cytotoxicity control, plate reader, cherry-pick, antagonist series (AID 743416); type: functional, cell-based
[32] = HEK293 cell cytotoxicity, dose response, cytotoxicity control, plate reader, cherry-picked samples (AID 743446); type: functional, cell-based
[33] = molecular target: Metabotropic glutamate receptor 3 (Rattus norvegicus, UniProt P31422); experiment: mGlu3 NAM potency via calcium readout, dose response, mGlu3 NAM project, TREx293 cells, Galpha15, calcium flux (AID 651840); type: functional
Beta-galactosidase = Beta-galactosidase (Escherichia coli, UniProt Q8VNN2); experiment: Dose response counterscreen for EBI2 assay utilizing the enzyme, b-galactosidase.; type: functional
[34] = T. cruzi growth inhibition in host cells, dose response, cell-based, plate reader, dry powder, set 2 (AID 652275); type: functional
[35] = HEK293T cell cytotoxicity, dose response, cytotoxicity control for HIV Vif inhibitor project, cherry-picks (AID 652208); type: functional, cell-based
Estrogen receptor beta [36] = molecular target: T4, Estrogen receptor beta (Homo sapiens, UniProt Q92731); experiment: ERβ–SRC-3 coactivator interaction inhibitors, confirmation, orthogonal assay, biochemical, ELISA, streptavidin-HRP readout (AID 1060)
Estrogen receptor beta [37] = molecular target: T4, Estrogen receptor beta

T1 sequence (P07550 whole entry): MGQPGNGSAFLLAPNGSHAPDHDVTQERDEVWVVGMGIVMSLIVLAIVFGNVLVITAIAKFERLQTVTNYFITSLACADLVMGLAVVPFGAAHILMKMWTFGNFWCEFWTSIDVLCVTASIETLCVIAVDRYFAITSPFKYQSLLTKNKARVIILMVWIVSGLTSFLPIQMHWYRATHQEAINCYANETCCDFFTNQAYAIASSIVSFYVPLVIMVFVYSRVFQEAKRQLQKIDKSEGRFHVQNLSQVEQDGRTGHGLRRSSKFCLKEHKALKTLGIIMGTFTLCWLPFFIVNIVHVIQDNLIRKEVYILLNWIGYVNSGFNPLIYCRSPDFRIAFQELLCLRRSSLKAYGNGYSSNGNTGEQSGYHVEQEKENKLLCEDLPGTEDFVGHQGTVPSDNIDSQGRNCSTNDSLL
Chain of Paired box protein Pax-8 (Q06710 whole entry): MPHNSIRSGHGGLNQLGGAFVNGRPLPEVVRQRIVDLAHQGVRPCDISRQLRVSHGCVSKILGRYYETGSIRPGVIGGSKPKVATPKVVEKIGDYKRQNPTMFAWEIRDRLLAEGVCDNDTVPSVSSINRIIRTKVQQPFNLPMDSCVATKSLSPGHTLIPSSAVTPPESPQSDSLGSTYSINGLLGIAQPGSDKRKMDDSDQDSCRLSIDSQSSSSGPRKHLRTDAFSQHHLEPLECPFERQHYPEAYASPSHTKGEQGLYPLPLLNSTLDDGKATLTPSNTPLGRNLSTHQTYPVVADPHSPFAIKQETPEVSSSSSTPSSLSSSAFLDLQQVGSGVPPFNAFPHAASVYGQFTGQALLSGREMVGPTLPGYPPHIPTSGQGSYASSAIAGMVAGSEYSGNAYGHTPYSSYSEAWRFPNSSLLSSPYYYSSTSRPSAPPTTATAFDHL
T4 sequence (Q92731 whole entry): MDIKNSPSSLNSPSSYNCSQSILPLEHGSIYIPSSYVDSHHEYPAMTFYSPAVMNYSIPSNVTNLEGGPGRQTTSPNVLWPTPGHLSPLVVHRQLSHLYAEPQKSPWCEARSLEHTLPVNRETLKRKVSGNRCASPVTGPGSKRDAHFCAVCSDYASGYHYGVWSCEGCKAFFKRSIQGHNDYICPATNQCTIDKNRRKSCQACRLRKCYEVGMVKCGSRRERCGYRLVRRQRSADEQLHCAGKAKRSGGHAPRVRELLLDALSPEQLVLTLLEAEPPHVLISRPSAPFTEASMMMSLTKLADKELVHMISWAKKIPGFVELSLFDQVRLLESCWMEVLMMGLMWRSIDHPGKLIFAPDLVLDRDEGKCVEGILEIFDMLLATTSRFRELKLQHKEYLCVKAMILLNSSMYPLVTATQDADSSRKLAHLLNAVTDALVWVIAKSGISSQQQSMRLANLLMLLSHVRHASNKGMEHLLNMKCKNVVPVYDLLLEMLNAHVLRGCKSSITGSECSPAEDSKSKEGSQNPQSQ
Chain of 1-phosphatidylinositol 4,5-bisphosphate phosphodiesterase beta-3 (Q01970 whole entry): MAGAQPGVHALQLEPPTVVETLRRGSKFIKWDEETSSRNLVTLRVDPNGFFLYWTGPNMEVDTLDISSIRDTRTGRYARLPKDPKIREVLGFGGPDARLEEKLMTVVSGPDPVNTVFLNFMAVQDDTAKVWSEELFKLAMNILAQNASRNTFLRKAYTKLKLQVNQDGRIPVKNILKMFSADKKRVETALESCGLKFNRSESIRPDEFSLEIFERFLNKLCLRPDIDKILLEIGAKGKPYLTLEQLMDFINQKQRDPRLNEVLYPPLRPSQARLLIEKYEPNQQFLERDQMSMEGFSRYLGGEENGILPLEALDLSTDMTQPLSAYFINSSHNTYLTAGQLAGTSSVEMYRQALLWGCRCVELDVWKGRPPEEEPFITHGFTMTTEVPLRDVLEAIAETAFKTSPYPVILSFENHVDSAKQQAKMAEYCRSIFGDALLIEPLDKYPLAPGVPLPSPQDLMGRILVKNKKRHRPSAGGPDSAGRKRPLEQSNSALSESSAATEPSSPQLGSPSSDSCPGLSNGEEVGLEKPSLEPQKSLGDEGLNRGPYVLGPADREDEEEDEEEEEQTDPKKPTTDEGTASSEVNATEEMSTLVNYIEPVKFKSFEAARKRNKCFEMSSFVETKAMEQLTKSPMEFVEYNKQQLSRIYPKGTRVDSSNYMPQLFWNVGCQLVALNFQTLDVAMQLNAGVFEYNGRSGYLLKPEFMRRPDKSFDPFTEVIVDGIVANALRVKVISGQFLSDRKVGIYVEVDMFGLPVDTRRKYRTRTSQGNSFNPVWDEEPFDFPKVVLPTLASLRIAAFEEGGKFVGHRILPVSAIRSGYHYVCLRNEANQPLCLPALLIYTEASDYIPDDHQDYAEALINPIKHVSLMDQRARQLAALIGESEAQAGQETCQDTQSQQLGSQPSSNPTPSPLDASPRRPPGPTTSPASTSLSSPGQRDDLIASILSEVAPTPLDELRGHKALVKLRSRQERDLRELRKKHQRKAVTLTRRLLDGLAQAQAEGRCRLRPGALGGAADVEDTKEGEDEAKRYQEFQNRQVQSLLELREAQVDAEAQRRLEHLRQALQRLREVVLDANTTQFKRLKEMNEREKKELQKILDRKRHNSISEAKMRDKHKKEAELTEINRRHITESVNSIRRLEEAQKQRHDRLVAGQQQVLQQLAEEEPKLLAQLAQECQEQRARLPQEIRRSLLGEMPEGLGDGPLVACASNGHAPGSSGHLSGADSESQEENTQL
Chain of Genome polyprotein (P29990 2492-3391 limits assumed): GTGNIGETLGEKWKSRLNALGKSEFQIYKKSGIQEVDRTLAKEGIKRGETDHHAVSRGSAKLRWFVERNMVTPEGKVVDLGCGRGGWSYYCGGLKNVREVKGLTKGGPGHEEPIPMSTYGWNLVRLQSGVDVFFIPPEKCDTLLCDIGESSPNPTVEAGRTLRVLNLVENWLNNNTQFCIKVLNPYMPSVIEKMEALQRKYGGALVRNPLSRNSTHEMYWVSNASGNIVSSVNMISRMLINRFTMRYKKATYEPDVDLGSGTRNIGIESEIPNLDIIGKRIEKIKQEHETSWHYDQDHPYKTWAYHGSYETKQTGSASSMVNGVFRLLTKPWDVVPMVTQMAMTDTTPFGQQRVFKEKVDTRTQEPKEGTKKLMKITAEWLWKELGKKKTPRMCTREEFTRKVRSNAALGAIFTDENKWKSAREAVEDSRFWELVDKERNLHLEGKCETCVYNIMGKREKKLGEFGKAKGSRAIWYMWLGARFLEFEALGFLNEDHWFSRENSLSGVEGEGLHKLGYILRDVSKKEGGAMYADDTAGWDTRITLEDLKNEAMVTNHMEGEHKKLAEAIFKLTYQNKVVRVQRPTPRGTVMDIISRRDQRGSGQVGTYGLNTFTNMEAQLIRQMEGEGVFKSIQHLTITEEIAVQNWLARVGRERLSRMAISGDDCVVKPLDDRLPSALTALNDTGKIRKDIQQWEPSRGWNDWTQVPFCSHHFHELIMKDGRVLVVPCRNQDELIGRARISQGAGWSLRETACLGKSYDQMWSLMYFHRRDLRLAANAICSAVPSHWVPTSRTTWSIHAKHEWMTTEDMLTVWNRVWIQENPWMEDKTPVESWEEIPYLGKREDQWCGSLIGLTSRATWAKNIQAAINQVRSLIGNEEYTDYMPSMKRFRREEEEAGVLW
Chain of Metabotropic glutamate receptor 3 (P31422 whole entry): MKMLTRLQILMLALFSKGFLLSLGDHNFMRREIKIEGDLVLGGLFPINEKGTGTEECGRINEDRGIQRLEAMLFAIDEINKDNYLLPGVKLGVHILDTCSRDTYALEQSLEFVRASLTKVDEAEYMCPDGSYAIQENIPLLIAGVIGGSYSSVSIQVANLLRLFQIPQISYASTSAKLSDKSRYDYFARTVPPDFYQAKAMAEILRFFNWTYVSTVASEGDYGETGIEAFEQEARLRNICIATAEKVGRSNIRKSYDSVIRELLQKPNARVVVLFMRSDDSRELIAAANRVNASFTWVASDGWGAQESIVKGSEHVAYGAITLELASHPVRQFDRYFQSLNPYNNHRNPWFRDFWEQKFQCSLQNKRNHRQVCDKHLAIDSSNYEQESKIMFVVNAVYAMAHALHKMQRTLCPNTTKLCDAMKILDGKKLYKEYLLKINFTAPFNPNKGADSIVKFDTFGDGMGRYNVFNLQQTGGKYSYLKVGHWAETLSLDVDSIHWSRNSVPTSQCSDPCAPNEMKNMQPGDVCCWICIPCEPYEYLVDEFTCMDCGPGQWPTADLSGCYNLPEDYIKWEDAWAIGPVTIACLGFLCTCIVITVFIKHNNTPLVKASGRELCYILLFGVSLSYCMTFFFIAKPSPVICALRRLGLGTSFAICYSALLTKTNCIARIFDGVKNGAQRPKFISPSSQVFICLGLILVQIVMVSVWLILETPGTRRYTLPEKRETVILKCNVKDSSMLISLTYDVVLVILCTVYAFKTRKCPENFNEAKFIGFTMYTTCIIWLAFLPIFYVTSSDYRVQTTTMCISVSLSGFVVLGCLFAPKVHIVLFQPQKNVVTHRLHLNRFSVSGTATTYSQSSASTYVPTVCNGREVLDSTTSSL
Chain of Caspase-7 (P55210 24-198 limits assumed): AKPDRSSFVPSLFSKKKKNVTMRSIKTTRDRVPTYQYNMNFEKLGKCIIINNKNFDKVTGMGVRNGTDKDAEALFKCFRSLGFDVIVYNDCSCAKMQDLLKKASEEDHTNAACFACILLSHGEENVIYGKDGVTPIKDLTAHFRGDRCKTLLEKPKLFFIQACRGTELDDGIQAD
Chain of Caspase-7 (P55210 207-303 limits assumed): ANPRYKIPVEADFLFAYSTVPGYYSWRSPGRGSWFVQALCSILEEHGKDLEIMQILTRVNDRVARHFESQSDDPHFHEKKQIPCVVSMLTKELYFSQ

C[C@H](CO)N1C[C@H](C)[C@@H](CN(C)C(=O)Nc2cccc3ccccc23)Oc2c(NC(=O)Nc3ccc(C(F)(F)F)cc3)cccc2C1=O
AC50 [1]: > 52 µM (inactive)
AC50 [2]: 34.4 µM (active)
AC50 [3]: > 52 µM (inactive)

Cc1ccc(OCC(=O)Nc2ccc(-c3nc4ncccc4o3)cc2)c(C)c1
EC50 [4]: 316 nM (active) and 92.7 nM (active)
EC50 [5]: 0.503 µM (active)

CCOCCCN=C(S)N1CCCN(c2nc3cc(C)c(C)cc3cc2C#N)CC1
AC50 (cells): > 52 µM (inactive)

CCC(=O)N1[C@@H]2c3ccc(/C=C/c4ccccc4)c(=O)n3C[C@H]1[C@H](CO)[C@H]2C(=O)N(C)C
AC50 [6]: 9.44 µM (active)

NC1=CC(=O)c2ccc(-c3cccc(C(=O)O)n3)nc2C1=O
CC50 [7]: 26.5 µM (inactive)

CCCn1c(C)cc(C(=O)CN2C(=O)c3ccccc3S2(=O)=O)c1C
AC50 [8]: 81.2 µM (active)
AC50 [9]: 0.69 µM (active)
AC50 [10]: 77.7 µM (active)
AC50 [11]: 26.8 µM (active)
AC50 [12]: 55.7 µM (active)
AC50 (HEK293): 0.211 µM (active)
AC50 [13]: 9.79 µM (active)
AC50 [14]: > 100 µM (inactive)
AC50 [15]: 4.42 µM (active)
AC50 [16]: > 52 µM (inactive)
AC50 [17]: 2.98 µM (active)
AC50 [18]: 3.24 µM (active)
AC50 [19]: 82.5 µM (active)
AC50 (Paired box protein Pax-8): 3.55 µM (active)
AC50 [20]: 0.798 µM (active)

CC(Cc1ccc(O)cc1)NCC(O)c1ccc(O)c(O)c1 (centres undefined)
AC50 (Caspase-7): > 70 µM (inactive)
EC50 [4]: 553 nM (active)
IC50 (Genome polyprotein): > 100 µM (active)
AC50 (Caspase-3): 24.5 µM (active)
AC50 (Caspase-6): 3.68 µM (active)

COc1cccc(C#Cc2ccc([C@@H]3[C@H](C#N)N(C(=O)c4ccccn4)[C@H]3CO)cc2)c1
AbsAC35 [21]: 55.61 µM
AC50 [22]: 63.7 µM (active)
AC50 [12]: 35.1 µM (active)
AC50 [14]: > 70 µM (inactive)
AC50 [23]: 12.7 µM (active)
AC50 [15]: > 70 µM (inactive)
AC50 [18]: > 70 µM (inactive)
AC50 (Paired box protein Pax-8): 11.9 µM (active)
AbsAC35 [24]: 296.86 µM

Cc1ccc(C(=O)NC(=S)NNC(=O)c2ccccc2O)cc1
EC50 (Streptococcus): 5.63 µM (active)
EC50 [25]: 1.29 µM (active)
IC50 [26]: > 122 µM (inactive)

O=C1C[S+]([O-])CN1c1ccc(Oc2ccccc2)cc1 (centres undefined)
IC50 [27]: 12.5 µM (inactive)
IC50 [28]: > 122 µM (inactive)

COC(=O)c1cccc(COc2ccc3cc(Br)c(=O)oc3c2)c1
IC50 [29]: > 100 µM (inactive)
IC50 [30]: > 100 µM (inactive)

COc1ccc(NC(=O)Nc2cccc([N+](=O)[O-])c2)cc1Cl
AC50 [31]: 26.8 µM (active)
AC50 [9]: 33.1 µM (active)
AC50 [32]: > 52 µM (inactive)
AC50 [20]: 34.3 µM (active)

COc1ccc(C#Cc2ccc(C(=O)N3CCCC(C)(O)C3)cc2)cc1 (centres undefined)
IC50 [33]: 0.525 µM

O=C(/C=C/c1ccc([N+](=O)[O-])cc1)N1CCN(S(=O)(=O)c2cccs2)CC1
IC50 (Beta-galactosidase): > 80 µM (inactive)

CC(C)N1CC2(CN(Cc3ccc(-c4ccccc4)cc3)C2)Oc2c(NC(=O)c3ccncc3)cccc2C1=O
AC50 [34]: 0.00131 µM (active)

CCOc1c(C(N)=O)c(-c2ccccc2)c2c(O)nc3ccccc3n12
AC50 [35]: 49.9 µM (active)
IC50 (Estrogen receptor beta [36]): > 50 µM (not active)
IC50 (Estrogen receptor beta [37]): 33.6 µM (not active)
